In PubChem BioAssay AID270 (DTP/NCI, 2004):
Where “and” joins values, the source holds several entries; their conditions need not be identical. Equal values may be shown once. Records with an inconclusive call do not appear.

Test system: BDF1 mice, s.c. Lewis lung carcinoma, T/C %
Experiment: NCI In Vivo Anticancer Drug Screen. Data for tumor model Lewis Lung Carcinoma (subcutaneous) in B6D2F1 (BDF1) mice
Summary of the method: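 First, mice carry a transplantable tumor. Next, groups receive either compound or vehicle. Finally, survival or tumor dimensions in the dosed animals are divided by the corresponding control figure.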

[1] = endpoint: median survival time, dose: 6.25 mg/kg/injection, schedule: Q01DX009 (ip), vehicle: saline with Tween-80, higher = longer survival
[2] = endpoint: median survival time, dose: 6.25 mg/kg/injection, schedule: Q01DX009 (ip), vehicle: Klucel (hydroxypropylcellulose) (HPC), higher = longer survival

In the case of `O=C(NC(Cc1ccccc1)C(=O)CCl)OCc1ccccc1` (configuration not stated), the T/C (endpoint: median survival time, dose: 3.12 mg/kg/injection, schedule: Q01DX009 (ip), vehicle: saline with Tween-80, higher = longer survival) is reported as 107 % of control, the T/C [1] is reported as 87 % of control and the T/C (endpoint: median survival time, dose: 12.5 mg/kg/injection, schedule: Q01DX009 (ip), vehicle: saline with Tween-80, higher = longer survival) is reported as 94 % of control.

With `CC(C)Sc1nc(N)nc2nc[nH]c12` the T/C (endpoint: mean tumor weight, dose: 12.5 mg/kg/injection, schedule: Q01DX011 (ip), vehicle: other, higher = larger tumour) was 75 % of control, the T/C (endpoint: mean tumor weight, dose: 25.0 mg/kg/injection, schedule: Q01DX011 (ip), vehicle: other, higher = larger tumour) was 95 % of control and the T/C (endpoint: mean tumor weight, dose: 50.0 mg/kg/injection, schedule: Q01DX011 (ip), vehicle: other, higher = larger tumour) was 67 % of control. For the same compound, the T/C (endpoint: mean tumor weight, dose: 100.0 mg/kg/injection, schedule: Q01DX011 (ip), vehicle: other, higher = larger tumour) was 48 % of control and 62 % of control, the T/C (endpoint: mean tumor weight, dose: 200.0 mg/kg/injection, schedule: Q01DX011 (ip), vehicle: other, higher = larger tumour) was 52 % of control and the T/C (endpoint: mean tumor weight, dose: 400.0 mg/kg/injection, schedule: Q01DX011 (ip), vehicle: other, higher = larger tumour) was 30 % of control.

For `COc1cc(O)c2c(c1)Cc1cc(C)cc(O)c1C2=O`, the T/C (endpoint: median survival time, dose: 0.1 mg/kg/injection, schedule: Q01DX009 (ip), vehicle: saline with Tween-80, higher = longer survival) was 117 % of control, the T/C (endpoint: median survival time, dose: 0.2 mg/kg/injection, schedule: Q01DX009 (ip), vehicle: saline with Tween-80, higher = longer survival) was 120 % of control and 122 % of control and the T/C (endpoint: median survival time, dose: 0.4 mg/kg/injection, schedule: Q01DX009 (ip), vehicle: saline with Tween-80, higher = longer survival) was 108 % of control. For the same compound, the T/C [1] was 110 % of control.

For `NS(=O)(=O)c1ncnc2nc[nH]c12`, the T/C (endpoint: mean tumor weight, dose: 5.0 mg/kg/injection, schedule: Q01DX011 (ip), vehicle: methylcellulose (MC), higher = larger tumour) was 88 % of control and the T/C (endpoint: mean tumor weight, dose: 25.0 mg/kg/injection, schedule: Q01DX011 (ip), vehicle: methylcellulose (MC), higher = larger tumour) was 87 % of control.

In the case of `O=C(O)C1CCCCN1` (configuration not stated), the T/C (endpoint: mean tumor weight, dose: 133.0 mg/kg/injection, schedule: Q01DX011 (ip), vehicle: other, higher = larger tumour) is reported as 110 % of control, the T/C (endpoint: mean tumor weight, dose: 300.0 mg/kg/injection, schedule: Q01DX011 (ip), vehicle: other, higher = larger tumour) is reported as 123 % of control and the T/C (endpoint: mean tumor weight, dose: 450.0 mg/kg/injection, schedule: Q01DX011 (ip), vehicle: other, higher = larger tumour) is reported as 116 % of control.

For `CCOC(=O)NC`, the T/C (endpoint: mean tumor weight, dose: 177.0 mg/kg/injection, schedule: Q01DX011 (ip), vehicle: saline, higher = larger tumour) was 87 % of control, the T/C (endpoint: mean tumor weight, dose: 266.0 mg/kg/injection, schedule: Q01DX011 (ip), vehicle: saline, higher = larger tumour) was 83 % of control and the T/C (endpoint: mean tumor weight, dose: 400.0 mg/kg/injection, schedule: Q01DX011 (ip), vehicle: saline, higher = larger tumour) was 62 % of control. For the same compound, the T/C (endpoint: mean tumor weight, dose: 600.0 mg/kg/injection, schedule: Q01DX011 (ip), vehicle: saline, higher = larger tumour) was 44 % of control.

For `Nc1nncs1`, the T/C [2] was 117 % of control and 122 % of control.

With `O=NN(CCCl)C(=O)NC1CCC(NC(=O)N(CCCl)N=O)CC1` (configuration not stated) the T/C (endpoint: median survival time, dose: 30.0 mg/kg/injection, schedule: Q04DX004 (ip), vehicle: saline with Tween-80, higher = longer survival) was 123 % of control, the T/C (endpoint: median survival time, dose: 45.0 mg/kg/injection, schedule: Q01DX001 (ip), vehicle: saline with Tween-80, higher = longer survival) was 109 % of control and the T/C (endpoint: median survival time, dose: 45.0 mg/kg/injection, schedule: Q04DX004 (ip), vehicle: saline with Tween-80, higher = longer survival) was 156 % of control. The T/C (endpoint: median survival time, dose: 75.0 mg/kg/injection, schedule: Q04DX004 (ip), vehicle: saline with Tween-80, higher = longer survival) was 104 % of control and 122 % of control, the T/C (endpoint: median survival time, dose: 84.0 mg/kg/injection, schedule: Q01DX001 (ip), vehicle: saline with Tween-80, higher = longer survival) was 174 % of control and the T/C (endpoint: median survival time, dose: 90.0 mg/kg/injection, schedule: Q07DX002 (ip), vehicle: saline with Tween-80, higher = longer survival) was 117 % of control and 222 % of control. The T/C (endpoint: median survival time, dose: 120.0 mg/kg/injection, schedule: Q07DX002 (ip), vehicle: saline with Tween-80, higher = longer survival) was 116 % of control, the T/C (endpoint: median survival time, dose: 150.0 mg/kg/injection, schedule: Q07DX002 (ip), vehicle: saline with Tween-80, higher = longer survival) was 105 % of control and the T/C (endpoint: median survival time, dose: 171.0 mg/kg/injection, schedule: Q01DX001 (ip), vehicle: saline with Tween-80, higher = longer survival) was 179 % of control. The T/C (endpoint: median survival time, dose: 255.0 mg/kg/injection, schedule: Q01DX001 (ip), vehicle: saline with Tween-80, higher = longer survival) was 112 % of control, the T/C (endpoint: median tumor weight (est.), dose: 30.0 mg/kg/injection, schedule: Q01DX001 (ip), vehicle: saline with Tween-80, higher = larger tumour) was 88 % of control and the T/C (endpoint: median tumor weight (est.), dose: 45.0 mg/kg/injection, schedule: Q01DX001 (ip), vehicle: saline with Tween-80, higher = larger tumour) was 121 % of control. For the same compound, the T/C (endpoint: median tumor weight (est.), dose: 67.0 mg/kg/injection, schedule: Q01DX001 (ip), vehicle: saline with Tween-80, higher = larger tumour) was 64 % of control, the T/C (endpoint: median tumor weight (est.), dose: 101.0 mg/kg/injection, schedule: Q01DX001 (ip), vehicle: saline with Tween-80, higher = larger tumour) was 83 % of control and the T/C (endpoint: median tumor weight (est.), dose: 152.0 mg/kg/injection, schedule: Q01DX001 (ip), vehicle: saline with Tween-80, higher = larger tumour) was 23 % of control.

`CSc1ccc(NC(=O)N(CCCl)N=O)cc1` was tested, and the T/C [2] was 115 % of control, the T/C (endpoint: median survival time, dose: 12.5 mg/kg/injection, schedule: Q01DX009 (ip), vehicle: Klucel (hydroxypropylcellulose) (HPC), higher = longer survival) was 90 % of control and the T/C (endpoint: median survival time, dose: 25.0 mg/kg/injection, schedule: Q01DX009 (ip), vehicle: Klucel (hydroxypropylcellulose) (HPC), higher = longer survival) was 106 % of control. For the same compound, the T/C (endpoint: median survival time, dose: 50.0 mg/kg/injection, schedule: Q01DX009 (ip), vehicle: Klucel (hydroxypropylcellulose) (HPC), higher = longer survival) was 103 % of control.
